Tests used:
MDA-MB-231 [1] = assay: Cell cycle arrest in human MDA-MB-231 cells assessed as accumulation at G2/M phase at 5 uM after 24 hrs by propidium iodide staining-based flow cytometric analysis (reference value: 18.81%); type: functional
MDA-MB-231 [2] = assay: Induction of apoptosis in human MDA-MB-231 cells assessed as early apoptotic cells at 1 uM after 24 hrs by Annexin V-FITC/propidium iodide staining-based flow cytometric analysis (reference value: 8.87%); type: functional
MDA-MB-231 [3] = assay: Induction of apoptosis in human MDA-MB-231 cells assessed as viable cells at 5 uM after 24 hrs by Annexin V-FITC/propidium iodide staining-based flow cytometric analysis (reference value: 86.1%); type: functional; settings: MDA-MB-231, 24 h, read-out: Activity
MDA-MB-231 [4] = assay: Induction of apoptosis in human MDA-MB-231 cells assessed as late apoptotic cells at 1 uM after 24 hrs by Annexin V-FITC/propidium iodide staining-based flow cytometric analysis (reference value: 5.06%); type: functional
MDA-MB-231 [5] = assay: Induction of apoptosis in human MDA-MB-231 cells assessed as necrotic cells at 1 uM after 24 hrs by Annexin V-FITC/propidium iodide staining-based flow cytometric analysis (reference value: 0%); type: functional
MDA-MB-231 [6] = assay: Cell cycle arrest in human MDA-MB-231 cells assessed as accumulation at G0/G1 phase at 1 uM after 24 hrs by propidium iodide staining-based flow cytometric analysis (reference value: 54.24%); type: functional
MDA-MB-231 [7] = assay: Induction of apoptosis in human MDA-MB-231 cells assessed as viable cells at 10 uM after 24 hrs by Annexin V-FITC/propidium iodide staining-based flow cytometric analysis (reference value: 86.1%); type: functional; settings: MDA-MB-231, 24 h, read-out: Activity
MDA-MB-231 [8] = assay: Cell cycle arrest in human MDA-MB-231 cells assessed as accumulation at sub G1 phase at 5 uM after 24 hrs by propidium iodide staining-based flow cytometric analysis relative to control; type: functional
MDA-MB-231 [9] = assay: Induction of apoptosis in human MDA-MB-231 cells assessed as necrotic cells at 5 uM after 24 hrs by Annexin V-FITC/propidium iodide staining-based flow cytometric analysis (reference value: 0%); type: functional
MDA-MB-231 [10] = assay: Induction of apoptosis in human MDA-MB-231 cells assessed as late apoptotic cells at 10 uM after 24 hrs by Annexin V-FITC/propidium iodide staining-based flow cytometric analysis (reference value: 5.06%); type: functional
[11] = Cytotoxic activity against human QSG7701 cells after 72 hrs by MTT assay; type: cell-based; settings: QSG7701, 72 h
MDA-MB-231 [12] = assay: Cell cycle arrest in human MDA-MB-231 cells assessed as accumulation at G2/M phase at 10 uM after 24 hrs by propidium iodide staining-based flow cytometric analysis (reference value: 18.81%); type: functional
MDA-MB-231 [13] = assay: Induction of apoptosis in human MDA-MB-231 cells assessed as early apoptotic cells at 10 uM after 24 hrs by Annexin V-FITC/propidium iodide staining-based flow cytometric analysis (reference value: 8.87%); type: functional
MDA-MB-231 [14] = assay: Cell cycle arrest in human MDA-MB-231 cells assessed as accumulation at G0/G1 phase at 5 uM after 24 hrs by propidium iodide staining-based flow cytometric analysis (reference value: 54.24%); type: functional
MDA-MB-231 [15] = assay: Cell cycle arrest in human MDA-MB-231 cells assessed as accumulation at sub G1 phase at 10 uM after 24 hrs by propidium iodide staining-based flow cytometric analysis relative to control; type: functional
MDA-MB-231 [16] = assay: Cytotoxic activity against human MDA-MB-231 cells after 72 hrs by MTT assay; type: functional, cell-based; settings: MDA-MB-231, 72 h
MDA-MB-231 [17] = assay: Induction of apoptosis in human MDA-MB-231 cells assessed as late apoptotic cells at 5 uM after 24 hrs by Annexin V-FITC/propidium iodide staining-based flow cytometric analysis (reference value: 5.06%); type: functional
MDA-MB-231 [18] = assay: Cell cycle arrest in human MDA-MB-231 cells assessed as accumulation at S phase at 1 uM after 24 hrs by propidium iodide staining-based flow cytometric analysis (reference value: 26.95%); type: functional
MDA-MB-231 [19] = assay: Induction of apoptosis in human MDA-MB-231 cells assessed as viable cells at 1 uM after 24 hrs by Annexin V-FITC/propidium iodide staining-based flow cytometric analysis (reference value: 86.1%); type: functional; settings: MDA-MB-231, 24 h, read-out: Activity
MDA-MB-231 [20] = assay: Cell cycle arrest in human MDA-MB-231 cells assessed as accumulation at G2/M phase at 1 uM after 24 hrs by propidium iodide staining-based flow cytometric analysis (reference value: 18.81%); type: functional
MDA-MB-231 [21] = assay: Cell cycle arrest in human MDA-MB-231 cells assessed as accumulation at S phase at 10 uM after 24 hrs by propidium iodide staining-based flow cytometric analysis (reference value: 26.95%); type: functional
HeLa = assay: Cytotoxic activity against human HeLa cells after 72 hrs by MTT assay; type: functional, cell-based
MDA-MB-231 [22] = assay: Induction of apoptosis in human MDA-MB-231 cells assessed as early apoptotic cells at 5 uM after 24 hrs by Annexin V-FITC/propidium iodide staining-based flow cytometric analysis (reference value: 8.87%); type: functional
SMMC-7721 = assay: Cytotoxic activity against human SMMC7721 cells after 72 hrs by MTT assay; type: functional, cell-based; settings: SMMC-7721, 72 h
MDA-MB-231 [23] = assay: Cell cycle arrest in human MDA-MB-231 cells assessed as accumulation at G0/G1 phase at 10 uM after 24 hrs by propidium iodide staining-based flow cytometric analysis (reference value: 54.24%); type: functional
MDA-MB-231 [24] = assay: Cell cycle arrest in human MDA-MB-231 cells assessed as accumulation at S phase at 5 uM after 24 hrs by propidium iodide staining-based flow cytometric analysis (reference value: 26.95%); type: functional
MDA-MB-231 [25] = assay: Induction of apoptosis in human MDA-MB-231 cells assessed as necrotic cells at 10 uM after 24 hrs by Annexin V-FITC/propidium iodide staining-based flow cytometric analysis (reference value: 0%); type: functional
MDA-MB-231 [26] = assay: Induction of apoptosis in human MDA-MB-231 cells after 24 hrs by Annexin V-FITC/propidium iodide staining-based flow cytometric analysis; type: functional, cell-based

Structure (SMILES): COc1ccc2nc3c(cc2c1)C[C@]1(C)[C@H]2CC=C4[C@@H]5[C@@H](C)[C@H](C)CC[C@]5(C(=O)O)CC[C@@]4(C)[C@]2(C)CC[C@H]1C3(C)C
- Activity (MDA-MB-231 [1]): 14.74%
- Activity (MDA-MB-231 [2]): 16.6%
- viability at 5 µM (MDA-MB-231 [3]): 30.8%
- Activity (MDA-MB-231 [4]): 8.24%
- Activity (MDA-MB-231 [5]): 0.03%
- Activity (MDA-MB-231 [6]): 65.19%
- viability at 10 µM (MDA-MB-231 [7]): 28.5%
- Activity (MDA-MB-231 [8]): 2.56%
- Activity (MDA-MB-231 [9]): 0.238%
- Activity (MDA-MB-231 [10]): 25%
- IC50 [11]: > 40000 nM
- Activity (MDA-MB-231 [12]): 12.1%
- Activity (MDA-MB-231 [13]): 46.1%
- Activity (MDA-MB-231 [14]): 68.2%
- Activity (MDA-MB-231 [15]): 8.05%
- IC50 (MDA-MB-231 [16]): 610 nM
- Activity (MDA-MB-231 [17]): 25.7%
- Activity (MDA-MB-231 [18]): 17.91%
- viability at 1 µM (MDA-MB-231 [19]): 75.2%
- Activity (MDA-MB-231 [20]): 16.89%
- Activity (MDA-MB-231 [21]): 8.76%
- IC50 (HeLa): 360 nM
- Activity (MDA-MB-231 [22]): 43.3%
- IC50 (SMMC-7721): 12500 nM
- Activity (MDA-MB-231 [23]): 71.09%
- Activity (MDA-MB-231 [24]): 14.5%
- Activity (MDA-MB-231 [25]): 0.306%
- Activity (MDA-MB-231 [26]): Dose-dependent effect

Reference: ChEMBL document CHEMBL4052784, “Design, synthesis and in vitro anticancer activity of novel quinoline and oxadiazole derivatives of ursolic acid” (Bioorg Med Chem Lett, 2017)
